Reference: the NIST ThermoML archive (doi:10.1016/j.fluid.2008.03.020)
± gives the expanded uncertainty stated by the source.

Columns and labels:
[1] = Liquid
[2] = refractive index (Na D-line) (dimensionless); details: Liquid, Standard Abbe refractometry

Structure (SMILES)	mass density ([1]; 298.15 K) [kg/m3]	refractive index ([2]; 298.15 K)	mass density ([1]; 293.15 K) [kg/m3]	refractive index ([2]; 293.15 K)	other results
O=[N+]([O-])c1ccccc1 [nitrobenzene]	1198.3 ± 3.3	1.55 ± 0.0007			vapor or sublimation pressure ([1]; 481.45 K): 95.5 ± 2 kPa
C=CC#N [acrylonitrile]	800.3 ± 2	1.3887 ± 0.0007			vapor or sublimation pressure ([1]; 348.75 K): 95.5 ± 2 kPa
ClCCCl [1,2-dichloroethane]			1252.9 ± 3.4	1.4196 ± 0.0007	vapor or sublimation pressure ([1]; 355.15 K): 95.5 ± 2 kPa
Clc1ccccc1 [chlorobenzene]	1101 ± 3	1.5218 ± 0.0007			vapor or sublimation pressure ([1]; 402.85 K): 95.5 ± 2 kPa
ClC(Cl)C(Cl)Cl [1,1,2,2-tetrachloroethane]			1593 ± 4.5	1.494 ± 0.0007	vapor or sublimation pressure ([1]; 417.25 K): 95.5 ± 2 kPa
